The text below walks through data of patent US20170081300A1, “SYDNONE DERIVATIVES FOR CONJUGATION OF COMPOUNDS OF INTEREST” (UNIVERSITE DE STRASBOURG, priority 2014, published 2017).

Structures are written as SMILES.

Holding throughout (type): physicochemical
The nature of assay [1]: Kinetic study of the coupling reaction of sydnones with cyclic alkyne BCN in PBS/DMSO (HPLC). The note with it: for K (BCN), second order kinetic constant: PBS/DMSO (9:1), 100 μM sydnone, 150 μM BCN. The procedure: (§1) The kinetics of the coupling reaction of different sydnones with two cyclic alkynes was studied, according to the following scheme.
(§2) Reactions of sydnones with BCN (or TMTH) were carried out in PBS/DMSO (9:1) mixtures at 100 μM concentration of sydnones and 150 μM concentration of BCN using the following procedure:
(§3) To 900 μL of phosphate buffered saline (PBS, 100 mM) was added 87.5 μL of DMSO, 10 μL of the solution of benzamide (internal standard, 100 mM in DMSO), 1 μL of the solution of sydnone (100 mM in DMSO) and 1.5 μL of the solution of BCN (100 mM in DMSO). The reaction mixture was injected in HPLC every 30 min and the conversion was followed by measuring the normalized sydnone peak area.
(§4) Second order reaction rate was determined by plotting ln([A]/[B])/([A]−[B]) versus time and analyzing by linear regression. Second order rate constant corresponds to the determined slope.

Assay [2] is described as follows: Kinetic study of the coupling reaction of sydnones with cyclic alkyne TMTH in PBS/DMSO (HPLC). The note with it: PBS/DMSO (9:1), 100 μM sydnone. The procedure:
as §1, §2, §3, §4

Assay [3] in a line: HPLC monitoring of the cycloaddition reaction with BCN in blood plasma. The conditions noted are these: 100 μM sydnone, 150 μM BCN, after 1 hour. The procedure:
Reactions of sydnone S1-2 with bicyclononyne BCN was carried out in blood plasma at 100 μM concentration of sydnone and 150 μM concentration of cyclooctyne BCN using the following procedure:
To 900 μL of blood plasma were added 10 μL of the solution of benzamide (internal standard, 100 mM in DMSO), 1 μL of the solution of sydnone (100 mM in DMSO) and 1.5 μL of the solution of BCN (100 mM in DMSO). The reaction mixture was injected in HPLC every 30 min and the conversion was followed by measuring the normalized sydnone peak area.

`O=C(O)c1ccc(-[n+]2noc([O-])c2Cl)cc1` [Sydnone S1-2, 3-(4-carboxyphenyl)-4-chloro-1,2,3λ^5-oxadiazol-3-ylium-5-olate]: the “ratio of K constant (BCN) to K constant of the corresponding sydnone not substituted in position 4” value in assay [1] (K(S1-1)/K(S0-3), K(S1-2)/K(S0-4)) is listed as 27. For the same compound, the “K (BCN), second order kinetic constant” value in assay [1] was determined as 1.593 ± 0.034 M⁻¹ s⁻¹. The “K (TMTH), second order kinetic constant” value in assay [2] amounted to 322 M⁻¹ s⁻¹. The “conversion of sydnone in reaction with BCN” value in assay [3] is recorded as “almost complete reaction”.
Consider `O=C(O)c1ccc(-[n+]2noc([O-])c2Br)cc1` [Sydnone S2-2, 4-bromo-3-(4-carboxyphenyl)-1,2,3λ^5-oxadiazol-3-ylium-5-olate], for which, in assay [1], the “K (BCN), second order kinetic constant” value came to 0.798 ± 0.065 M⁻¹ s⁻¹. In addition, the “K (TMTH), second order kinetic constant” value in assay [2] is 101 M⁻¹ s⁻¹.
With `O=C(O)c1ccc(-[n+]2cc([O-])on2)cc1` [Sydnone S0-4, 3-(4-carboxyphenyl)-1,2,3λ^5-oxadiazol-3-ylium-5-olate, reference compound], the “K (BCN), second order kinetic constant” value in assay [1] amounted to 0.059 ± 0.001 M⁻¹ s⁻¹.
